In patent US4782074A (priority 1987, dated 1988):

Experiments:
Assay type in all cases: in vivo
Uromyces phaseoli tipica = assay: Leaf Rust / Bean Rust control (Example F); details: 336 h, pinto bean plants, rated after about 14 days, relative to untreated check plants, read-out: % Control BR
Procedure: The Leaf Rust test was made using pinto beans. The pathogen was Uromyces phaseoli tipica. The pinto bean plants were sprayed with a 250-ppm solution of the test compound in an acetone-water mixture containing a nonionic emulsifier. The treated plants were inoculated thereafter with the pathogen and then incubated in an environmental chamber for approximately 20 hours at 100% relative humidity and a temperature of 68° F. to 70° F. The plants were then removed from the chamber, allowed to dry, and then maintained in a greenhouse at a 60% to 80% relative humidity. The rate of infection on the leaves was made after about 14 days. The percent disease control provided by a given test compound was based on the percent disease reduction relative to untreated check plants.

Plasmopara viticola = assay: Grape Downy Mildew control (Example E); details: detached grape leaves, cultivar Emperor, relative to untreated check plants, read-out: % Control GDM
Procedure: The compounds of the invention were tested for the control of the Grape Downy Mildew organism Plasmopara viticola. Detached leaves, between 70 mm and 85 mm in diameter, 7-week-old Vitis vinifera cultivar Emperor grape seedlings were used as hosts. The leaves were sprayed with a 250-ppm solution of the test compound in acetone. The sprayed leaves were dried, inoculated with a spore suspension of the organism, placed in a humid environmental chamber and incubated at 66° F. to 68° F. and about 100% relative humidity. After incubation for 2 days, the plants were then held in a greenhouse 7 to 9 days; then the amount of disease control was determined. The percent disease control provided by a given test compound was based on the percent disease reduction relative to untreated check plants.

Piricularia oryzae = assay: whole plant or invertebrate; details: Pyricularia oryzae, read-out: % Control RB
[1] = system: Alternaria solani conidia; assay: Tomato Early Blight control (Example D); details: 288 h, tomato seedlings, Bonny Best, inoculated 1 day after spray, relative to untreated check plants, read-out: % Control TEB
Procedure: Compounds of the invention were tested for the control of the Tomato Early Blight organism Alternaria solani conidia. Tomato (variety Bonny Best) seedlings of 6- to 7-weeks old were used. The tomato plants were sprayed with a 250-ppm solution of the test compound in an acetone-and-water solution containing a small amount of a nonionic emulsifier. The sprayed plants were inoculated 1 day later with the organism, placed in the environmental chamber and incubated at 66° F. to 68° F. and 100% relative humidity for 24 hours. Following the incubation, the plants were maintained in a greenhouse for about 12 days. Percent disease control was based on the percent disease development on untreated check plants.

Phytophthora infestans = assay: whole plant or invertebrate; details: in Solanum lycopersicum, 168 h, read-out: % Control TLB
Septoria apii = assay: whole plant or invertebrate; details: 336 h, read-out: % Control CLB
Erysiphe polygoni = assay: Bean Powdery Mildew control (Example A); details: 240 h, seedling bean plants, inoculated 1 day after spray, 10 days, relative to untreated check plants, read-out: % Control BPM
Procedure: The compounds of the invention were tested for the control of the Bean Powdery Mildew organism Erysiphe polygoni. Seedling bean plants were sprayed with a 250-ppm solution of the test compound in acetone, water and a nonionic emusifier. The sprayed plants were then inoculated 1 day later with the organism. The plants were maintained for 10 days at temperatures of 68° F. at night with daytime temperatures of 72° F. to 80° F.; relative humidity was maintained at 40% to 60%. The percent disease control provided by a given test compound was based on the percent disease reduction relative to the untreated check plants.

CCCN(CCOc1c(Cl)cc(Cl)cc1Cl)C(=O)c1ccncc1 [Compound 10]
pest or weed control at 250 ppm (Uromyces phaseoli tipica): 29% | pest or weed control at 250 ppm (Plasmopara viticola): 9% | pest or weed control at 625 ppm (Piricularia oryzae): 0% | pest or weed control at 250 ppm [1]: 32% | pest or weed control at 250 ppm (Phytophthora infestans): 11% | pest or weed control at 250 ppm (Septoria apii): 0% | pest or weed control at 250 ppm (Erysiphe polygoni): 0%

O=C(c1cccnc1)N(CCO)CCOc1c(Cl)cc(Cl)cc1Cl [Compound 30]
pest or weed control at 250 ppm (Uromyces phaseoli tipica): 0% | pest or weed control at 250 ppm (Plasmopara viticola): 54% | pest or weed control at 625 ppm (Piricularia oryzae): 0% | pest or weed control at 250 ppm [1]: 17% | pest or weed control at 250 ppm (Phytophthora infestans): 7% | pest or weed control at 250 ppm (Septoria apii): 32% | pest or weed control at 250 ppm (Erysiphe polygoni): 33%

CCCN(CCOc1c(Cl)cc(Cl)cc1Cl)C(=S)c1cccnc1 [Compound 17, N-(n-propyl), N-(3-pyridylthiocarbonyl)ethanolamine 2,4,6-trichlorophenylether]
pest or weed control at 250 ppm (Uromyces phaseoli tipica): 0% | pest or weed control at 250 ppm (Plasmopara viticola): 4% | pest or weed control at 625 ppm (Piricularia oryzae): 100% | pest or weed control at 250 ppm [1]: 87% | pest or weed control at 250 ppm (Phytophthora infestans): 0% | pest or weed control at 250 ppm (Septoria apii): 62% | pest or weed control at 250 ppm (Erysiphe polygoni): 100%

CCCN(CC(C)Cc1ccc(C(C)(C)C)cc1)C(=O)c1cnccn1 (stereo not shown) [Compound 24]
pest or weed control at 250 ppm (Uromyces phaseoli tipica): 0% | pest or weed control at 250 ppm (Plasmopara viticola): 7% | pest or weed control at 625 ppm (Piricularia oryzae): 0% | pest or weed control at 250 ppm [1]: 8% | pest or weed control at 250 ppm (Phytophthora infestans): 4% | pest or weed control at 250 ppm (Septoria apii): 17% | pest or weed control at 250 ppm (Erysiphe polygoni): 72%

CCCN(C(=O)c1cnccn1)C(C)COc1c(Cl)cc(Cl)cc1Cl (stereo not shown) [Compound 21, N-(n-propyl), N-(2-pyrazinylcarbonyl)propanol-2-amine 2,4,6-trichlorophenylether]
pest or weed control at 250 ppm (Uromyces phaseoli tipica): 23% | pest or weed control at 250 ppm (Plasmopara viticola): 67% | pest or weed control at 625 ppm (Piricularia oryzae): 0% | pest or weed control at 250 ppm (Phytophthora infestans): 0% | pest or weed control at 250 ppm (Septoria apii): 0% | pest or weed control at 250 ppm (Erysiphe polygoni): 71%

CCCN(CCCc1c(Cl)cccc1Cl)C(=O)c1cnccn1 [Compound 25]
pest or weed control at 250 ppm (Uromyces phaseoli tipica): 0% | pest or weed control at 250 ppm (Plasmopara viticola): 0% | pest or weed control at 625 ppm (Piricularia oryzae): 0% | pest or weed control at 250 ppm [1]: 29% | pest or weed control at 250 ppm (Phytophthora infestans): 0% | pest or weed control at 250 ppm (Septoria apii): 8% | pest or weed control at 250 ppm (Erysiphe polygoni): 28%

CCCN(Cc1c(Cl)cccc1Cl)C(=O)c1cccnc1 [Compound 29]
pest or weed control at 250 ppm (Uromyces phaseoli tipica): 0% | pest or weed control at 250 ppm (Plasmopara viticola): 27% | pest or weed control at 250 ppm [1]: 50% | pest or weed control at 250 ppm (Phytophthora infestans): 0% | pest or weed control at 250 ppm (Septoria apii): 0% | pest or weed control at 250 ppm (Erysiphe polygoni): 48%

CCCN(CCOc1c(Cl)cccc1Cl)C(=O)c1cncnc1 [Compound 13]
pest or weed control at 250 ppm (Uromyces phaseoli tipica): 0% | pest or weed control at 250 ppm (Plasmopara viticola): 10% | pest or weed control at 250 ppm [1]: 97% | pest or weed control at 250 ppm (Phytophthora infestans): 4% | pest or weed control at 250 ppm (Septoria apii): 80% | pest or weed control at 250 ppm (Erysiphe polygoni): 81%

CCCN(C(=O)c1cccnc1)C(C)COc1c(Cl)cc(Cl)cc1Cl (stereo not shown) [Compound 20, N-(n-propyl), N-(3-pyridylcarbonyl)propanol-2-amine 2,4,6-trichlorophenylether]
pest or weed control at 250 ppm (Uromyces phaseoli tipica): 23% | pest or weed control at 250 ppm (Plasmopara viticola): 7% | pest or weed control at 625 ppm (Piricularia oryzae): 0% | pest or weed control at 250 ppm (Phytophthora infestans): 0% | pest or weed control at 250 ppm (Septoria apii): 0% | pest or weed control at 250 ppm (Erysiphe polygoni): 93%

CCCN(CCOc1ccc(C(C)(C)C)cc1)C(=O)c1cnccn1 [Compound 5]
pest or weed control at 250 ppm (Uromyces phaseoli tipica): 0% | pest or weed control at 250 ppm (Plasmopara viticola): 28% | pest or weed control at 250 ppm [1]: 36% | pest or weed control at 250 ppm (Phytophthora infestans): 0% | pest or weed control at 250 ppm (Septoria apii): 17% | pest or weed control at 250 ppm (Erysiphe polygoni): 94%

CCCN(CCOc1ccc(C(C)(C)C)cc1)C(=O)c1cccnc1 [Compound 6]
pest or weed control at 250 ppm (Uromyces phaseoli tipica): 0% | pest or weed control at 250 ppm (Plasmopara viticola): 0% | pest or weed control at 250 ppm [1]: 50% | pest or weed control at 250 ppm (Phytophthora infestans): 10% | pest or weed control at 250 ppm (Septoria apii): 0% | pest or weed control at 250 ppm (Erysiphe polygoni): 98%

CCCN(CCOc1c(Cl)cc(Cl)cc1Cl)C(=S)c1cnccn1 [Compound 18]
pest or weed control at 250 ppm (Uromyces phaseoli tipica): 0% | pest or weed control at 250 ppm (Plasmopara viticola): 43% | pest or weed control at 250 ppm (Phytophthora infestans): 0% | pest or weed control at 250 ppm (Septoria apii): 85% | pest or weed control at 250 ppm (Erysiphe polygoni): 54%
